Measurements: ChEMBL document CHEMBL1154345, “Discovery of tricyclic 5,6-dihydro-1H-pyridin-2-ones as novel, potent, and orally bioavailable inhibitors of HCV NS5B polymerase” (Bioorg Med Chem Lett, 2009)

Columns and labels:
[1] = system: Hepatitis C virus; test: microbe, parasite or virus in culture; assay type: functional, organism-based, Hepacivirus hominis, genotype 1b, Huh-luc/neo-ET; settings: Hepatitis C virus, genotype 1b, Huh-luc/neo-ET, 72 h
Description: Antiviral activity against HCV-1b infected human Huh-luc/neo-ET replicon cells after 72 hrs by luciferase based replicon assay

[2] = in vitro; settings: human, t1/2
[3] = in vitro; settings: human
Description: Metabolic stability in human liver microsomes assessed as compound remaining after 60 mins at 1 uM

Compound | EC50 [1] [nM] | half-life at 1 µM ([2]; liver microsomes) [min] | remaining at 1 h, 1 µM ([3]; liver microsomes) [%] | remaining at 1 h, 1 µM ([3]; microsomes) [%] | half-life at 1 µM ([2]; microsomes) [min]
CS(=O)(=O)Nc1ccc2c(c1)S(=O)(=O)N=C(C1=C(O)[C@@H]3[C@H]4CC[C@H](C4)[C@@H]3N(CC3CCCCC3)C1=O)N2 | 22 | 44 | – | – | –
CS(=O)(=O)Nc1ccc2c(c1)S(=O)(=O)N=C(C1=C(O)[C@@H]3C4CCC(CC4)[C@@H]3N(Cc3cccc(C(F)(F)F)c3)C1=O)N2 | 390 | – | – | – | –
COc1cccc(CN2C(=O)C(C3=NS(=O)(=O)c4cc(NS(C)(=O)=O)ccc4N3)=C(O)[C@@H]3[C@H]4CC[C@H](C4)[C@@H]32)c1 | 70 | > 60 | 61 | – | –
CS(=O)(=O)Nc1ccc2c(c1)S(=O)(=O)N=C(C1=C(O)[C@@H]3[C@@H]4CC[C@@H](C4)[C@@H]3N(Cc3cccc(F)c3F)C1=O)N2 | 100 | – | – | – | –
CS(=O)(=O)Nc1ccc2c(c1)S(=O)(=O)N=C(C1=C(O)[C@@H]3[C@@H]4CC[C@@H](C4)[C@@H]3N(Cc3ccc(F)cc3Cl)C1=O)N2 | 140 | – | – | – | –
CS(=O)(=O)Nc1ccc2c(c1)S(=O)(=O)N=C(C1=C(O)[C@@H]3[C@@H]4CC[C@@H](C4)[C@@H]3N(Cc3ccc(C(F)(F)F)cc3)C1=O)N2 | > 3300 | – | – | – | –
CS(=O)(=O)Nc1ccc2c(c1)S(=O)(=O)N=C(C1=C(O)[C@@H]3[C@H]4CC[C@H](C4)[C@@H]3N(Cc3cc(F)ccc3F)C1=O)N2 | 260 | – | – | – | –
CS(=O)(=O)Nc1ccc2c(c1)S(=O)(=O)N=C(C1=C(O)[C@@H]3[C@@H]4CC[C@@H](C4)[C@@H]3N(Cc3ccc(F)c(F)c3F)C1=O)N2 | 46 | > 60 | 87 | – | –
CS(=O)(=O)Nc1ccc2c(c1)S(=O)(=O)N=C(C1=C(O)[C@@H]3[C@H]4CC[C@H](C4)[C@@H]3N(Cc3ccco3)C1=O)N2 | 250 | – | – | – | –
CS(=O)(=O)Nc1ccc2c(c1)S(=O)(=O)N=C(C1=C(O)[C@@H]3[C@@H]4CC[C@@H](C4)[C@@H]3N(Cc3cc(Cl)ccc3F)C1=O)N2 | 300 | – | – | – | –
CS(=O)(=O)Nc1ccc2c(c1)S(=O)(=O)N=C(C1=C(O)[C@@H]3C4CCC(CC4)[C@@H]3N(CC3CCCC3)C1=O)N2 | 24 | 47 | – | – | –
CS(=O)(=O)Nc1ccc2c(c1)S(=O)(=O)N=C(C1=C(O)[C@@H]3[C@H]4CC[C@H](C4)[C@@H]3N(Cc3ccc(C(F)(F)F)cc3)C1=O)N2 | > 3300 | – | – | – | –
CS(=O)(=O)Nc1ccc2c(c1)S(=O)(=O)N=C(C1=C(O)[C@@H]3C4CCC(CC4)[C@@H]3N(Cc3cc(F)ccc3F)C1=O)N2 | 220 | – | – | – | –
CS(=O)(=O)Nc1ccc2c(c1)S(=O)(=O)N=C(C1=C(O)[C@@H]3[C@H]4CC[C@H](C4)[C@@H]3N(Cc3ccccc3)C1=O)N2 | 29 | > 60 | 80 | – | –
CS(=O)(=O)Nc1ccc2c(c1)S(=O)(=O)N=C(C1=C(O)[C@@H]3C4CCC(CC4)[C@@H]3N(Cc3cccc(F)c3F)C1=O)N2 | 82 | > 60 | 75 | – | –
Cc1ccc(CN2C(=O)C(C3=NS(=O)(=O)c4cc(NS(C)(=O)=O)ccc4N3)=C(O)[C@@H]3[C@@H]4CC[C@@H](C4)[C@@H]32)cc1F | 1700 | – | – | – | –
CS(=O)(=O)Nc1ccc2c(c1)S(=O)(=O)N=C(C1=C(O)[C@@H]3[C@@H]4CC[C@@H](C4)[C@@H]3N(Cc3ccc(Cl)cc3)C1=O)N2 | 73 | – | – | 100 | > 60
CS(=O)(=O)Nc1ccc2c(c1)S(=O)(=O)N=C(C1=C(O)[C@@H]3[C@@H]4CC[C@@H](C4)[C@@H]3N(Cc3ccccc3F)C1=O)N2 | 63 | > 60 | 83 | – | –
CS(=O)(=O)Nc1ccc2c(c1)S(=O)(=O)N=C(C1=C(O)[C@@H]3[C@@H]4CC[C@@H](C4)[C@@H]3N(CC3CCCCC3)C1=O)N2 | 63 | 15 | – | – | –
CS(=O)(=O)Nc1ccc2c(c1)S(=O)(=O)N=C(C1=C(O)[C@@H]3[C@H]4CC[C@H](C4)[C@@H]3N(Cc3nccs3)C1=O)N2 | > 1000 | – | – | – | –
Cc1ccc(CN2C(=O)C(C3=NS(=O)(=O)c4cc(NS(C)(=O)=O)ccc4N3)=C(O)[C@@H]3[C@H]4CC[C@H](C4)[C@@H]32)cc1F | 770 | > 60 | 78 | – | –
CS(=O)(=O)Nc1ccc2c(c1)S(=O)(=O)N=C(C1=C(O)[C@@H]3C4CCC(CC4)[C@@H]3N(Cc3cc(Cl)ccc3F)C1=O)N2 | 80 | > 60 | 100 | – | –

Compound | EC50 [1] [nM] | half-life at 1 µM ([2]; liver microsomes) [min] | remaining at 1 h, 1 µM ([3]; liver microsomes) [%] | remaining at 1 h, 1 µM ([3]; microsomes) [%] | half-life at 1 µM ([2]; microsomes) [min]
CS(=O)(=O)Nc1ccc2c(c1)S(=O)(=O)N=C(C1=C(O)[C@@H]3[C@@H]4CC[C@@H](C4)[C@@H]3N(Cc3cccc(C(F)(F)F)c3)C1=O)N2 | 940 | – | – | – | –
CC(C)(C)CCN1C(=O)C(C2=NS(=O)(=O)c3cc(NS(C)(=O)=O)ccc3N2)=C(O)[C@@H]2[C@@H]3CC[C@@H](C3)[C@@H]21 | 50 | – | – | – | 3
CS(=O)(=O)Nc1ccc2c(c1)S(=O)(=O)N=C(C1=C(O)[C@@H]3C4CCC(CC4)[C@@H]3N(Cc3ccccc3F)C1=O)N2 | 26 | > 60 | 81 | – | –
CS(=O)(=O)Nc1ccc2c(c1)S(=O)(=O)N=C(C1=C(O)[C@@H]3[C@@H]4CC[C@@H](C4)[C@@H]3N(Cc3cc(F)ccc3F)C1=O)N2 | 260 | – | – | – | –
CS(=O)(=O)Nc1ccc2c(c1)S(=O)(=O)N=C(C1=C(O)[C@@H]3[C@@H]4CC[C@@H](C4)[C@@H]3N(Cc3ccc(F)cc3F)C1=O)N2 | 55 | – | – | 100 | > 60
Cc1ccc(CN2C(=O)C(C3=NS(=O)(=O)c4cc(NS(C)(=O)=O)ccc4N3)=C(O)[C@@H]3C4CCC(CC4)[C@@H]32)cc1F | 240 | – | – | – | –
CS(=O)(=O)Nc1ccc2c(c1)S(=O)(=O)N=C(C1=C(O)[C@@H]3[C@@H]4CC[C@@H](C4)[C@@H]3N(CC3CCCC3)C1=O)N2 | 160 | – | – | – | 17
CC(C)CCN1C(=O)C(C2=NS(=O)(=O)c3cc(NS(C)(=O)=O)ccc3N2)=C(O)[C@@H]2[C@@H]3CC[C@@H](C3)[C@@H]21 | 89 | 18 | – | – | –
CS(=O)(=O)Nc1ccc2c(c1)S(=O)(=O)N=C(C1=C(O)[C@@H]3[C@@H]4CC[C@@H](C4)[C@@H]3N(Cc3nccs3)C1=O)N2 | > 1000 | – | – | – | –
CC(C)CCN1C(=O)C(C2=NS(=O)(=O)c3cc(NS(C)(=O)=O)ccc3N2)=C(O)[C@@H]2C3CCC(CC3)[C@@H]21 | 29 | 59 | – | – | –
CS(=O)(=O)Nc1ccc2c(c1)S(=O)(=O)N=C(C1=C(O)[C@@H]3C4CCC(CC4)[C@@H]3N(Cc3ccc(C(F)(F)F)cc3)C1=O)N2 | 1100 | – | – | – | –
CS(=O)(=O)Nc1ccc2c(c1)S(=O)(=O)N=C(C1=C(O)[C@@H]3C4CCC(CC4)[C@@H]3N(Cc3nccs3)C1=O)N2 | 3300 | – | – | – | –
CS(=O)(=O)Nc1ccc2c(c1)S(=O)(=O)N=C(C1=C(O)[C@@H]3[C@H]4CC[C@H](C4)[C@@H]3N(Cc3ccccc3F)C1=O)N2 | 70 | > 60 | 89 | – | –
CS(=O)(=O)Nc1ccc2c(c1)S(=O)(=O)N=C(C1=C(O)[C@@H]3[C@H]4CC[C@H](C4)[C@@H]3N(Cc3cccc(C(F)(F)F)c3)C1=O)N2 | 820 | – | – | – | –
CS(=O)(=O)Nc1ccc2c(c1)S(=O)(=O)N=C(C1=C(O)[C@@H]3C4CCC(CC4)[C@@H]3N(Cc3ccco3)C1=O)N2 | 80 | > 60 | 96 | – | –
COc1cccc(CN2C(=O)C(C3=NS(=O)(=O)c4cc(NS(C)(=O)=O)ccc4N3)=C(O)[C@@H]3[C@@H]4CC[C@@H](C4)[C@@H]32)c1 | 62 | > 60 | 83 | – | –
CS(=O)(=O)Nc1ccc2c(c1)S(=O)(=O)N=C(C1=C(O)[C@@H]3[C@H]4CC[C@H](C4)[C@@H]3N(Cc3cccc(F)c3F)C1=O)N2 | 130 | – | – | – | –
CS(=O)(=O)Nc1ccc2c(c1)S(=O)(=O)N=C(C1=C(O)[C@@H]3[C@@H]4CC[C@@H](C4)[C@@H]3N(Cc3ccccc3Cl)C1=O)N2 | 130 | – | – | – | –
CS(=O)(=O)Nc1ccc2c(c1)S(=O)(=O)N=C(C1=C(O)[C@@H]3[C@H]4CC[C@H](C4)[C@@H]3N(CC3CCCC3)C1=O)N2 | 72 | – | – | – | 46
CS(=O)(=O)Nc1ccc2c(c1)S(=O)(=O)N=C(C1=C(O)[C@@H]3[C@@H]4CC[C@@H](C4)[C@@H]3N(Cc3ccco3)C1=O)N2 | 170 | – | – | – | –
CS(=O)(=O)Nc1ccc2c(c1)S(=O)(=O)N=C(C1=C(O)[C@@H]3[C@H]4CC[C@H](C4)[C@@H]3N(Cc3cc(Cl)ccc3F)C1=O)N2 | 250 | – | – | – | –
